“Also recorded” adds a separate entry of the source. Where two headings read alike, the source gives them in different places.
Columns and labels:
S1P1 [1] = target: T1, S1P1 (Homo sapiens, UniProt P21453); assay: Label-free impedance assay in HUVEC, first stimulation (early and late BNCI response); assay type: cell-based; conditions: for Impedance profile in the presence of the GRK2 inhibitor: 10 µM GRK2 inhibitor, over 60 min; for Late phase Max: determined manually for bell-shaped responses; for Early phase Max: BNCI curve maximum; for Early phase Max / Early phase Min / Early phase Hill slope: early response; for Early phase Min: BNCI curve minimum; for EC50: first stimulation, geometric mean; for Emax: read-out: Maximum BNCI in late response as % of E max in early response
T1 construct: host or cells: HUVEC (pooled donors)
Description: (§1) HUVECs from pooled donors (PromoCell GmbH, Heidelberg, Germany, C‐12203) were seeded at 10 000 cells per well, in complete medium (C2210, C39210) containing 2% fetal bovine serum (FBS), in 96‐well collagen‐I coated E‐plates. Cells were allowed to attach and proliferate for 6 h, followed by overnight serum starvation in medium containing 0.1% FBS. Electrical impedance was measured continuously with RTCA‐MP station (xCELLigence RTCA, ACEA‐Biosciences, San Diego, CA, USA), according to the manufacturer’s protocol, and expressed as baseline normalized cell index (BNCI) using RTCA2.0 software. Impedance measurements were analyzed for 60 min following addition of test compounds or DMSO control, and the early (peak response at 8–10 min) and late response (at 60 min) was used for further analysis. Cells were then washed in medium containing 0.1% FBS for 5.5 h. The effect of each test compound to desensitize the response to a second stimulation with the natural ligand S1P (80 nM) was measured in the same wells and expressed as the AUC0–60 min of the S1P‐induced BNCI response. […] The baseline for the BNCI calculation was the respective vehicle responses for the first (0.1% DMSO) and second stimulations (2.5 µg·mL^−1 BSA). When tested, 10 µM GRK2 inhibitor was pretreated with cells for 2 h prior to addition of test compounds and its effect on early and late responses measured as above. All experiments were repeated on at least 3 separate occasions.
Effective concentration corresponding to half of the difference between the maximum and minimum effect (EC50) of agonists was determined with SAS procedure NLIN in SAS system release 9.1 under UNIX via BIOSTAT@T‐SPEED‐LTS v2.0 internal software using the 4‐parameter logistical model.

S1P1 [2] = target: T1, S1P1; assay: Desensitization of S1P-induced BNCI response in HUVEC (second stimulation with 80 nM S1P); assay type: cell-based; conditions: for Desensitization Max: S1P-induced BNCI response curve maximum; for Desensitization Max / Desensitization Min / Desensitization Hill slope: arithmetic mean; for Desensitization Min: S1P-induced BNCI response curve minimum; for IC50: absolute 50% reduction of control S1P (80 nM)-induced BNCI AUC0–60 min after 5.5 h wash, geometric mean, read-out: Desensitization IC50 [95% CI]
Description: as §1
The activation‐to‐desensitization ratio was expressed as IC50/EC50 for early phase. EC50, IC50, and activation‐to‐desensitization ratio were reported as geometric mean with 95% confidence intervals.

lymphocytes = conditions: approved dose in MS; no reference given; cited from earlier work
[3] = cited from earlier work
recombinant human GRK2 = target: T2, recombinant human GRK2 (Homo sapiens, UniProt P25098); assay: 33P-ATP flash plate kinase assay; assay type: biochemical; conditions: 3 µM ATP, biotin-[…] substrate
T2 construct: purchased Thermo Fisher PR4694A
T2 sequence (P25098 1-689): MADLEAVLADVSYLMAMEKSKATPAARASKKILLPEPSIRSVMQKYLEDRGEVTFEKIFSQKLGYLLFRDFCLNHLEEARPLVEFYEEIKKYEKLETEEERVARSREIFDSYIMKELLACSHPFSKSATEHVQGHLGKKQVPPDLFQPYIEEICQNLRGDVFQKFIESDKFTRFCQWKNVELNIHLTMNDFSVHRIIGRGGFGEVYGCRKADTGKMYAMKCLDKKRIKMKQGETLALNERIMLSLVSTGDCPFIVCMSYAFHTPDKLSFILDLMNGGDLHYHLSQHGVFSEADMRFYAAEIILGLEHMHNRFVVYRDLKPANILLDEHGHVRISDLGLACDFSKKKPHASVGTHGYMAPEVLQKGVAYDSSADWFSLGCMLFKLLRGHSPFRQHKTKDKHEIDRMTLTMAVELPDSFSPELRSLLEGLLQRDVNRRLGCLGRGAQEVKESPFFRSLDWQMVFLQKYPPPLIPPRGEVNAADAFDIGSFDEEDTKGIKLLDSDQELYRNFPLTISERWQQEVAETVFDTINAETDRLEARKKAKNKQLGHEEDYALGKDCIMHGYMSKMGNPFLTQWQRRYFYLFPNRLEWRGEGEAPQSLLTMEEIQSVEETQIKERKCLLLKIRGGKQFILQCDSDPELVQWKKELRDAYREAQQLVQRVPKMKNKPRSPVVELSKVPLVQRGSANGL

human S1P1 = assay: β-arrestin recruitment assay in PathHunter cells overexpressing human S1P1; assay type: cell-based; conditions: read-out: IC50 inhibition of β-arrestin recruitment
Description: The cellular potency of the GRK2 inhibitor was determined using a β‐arrestin recruitment assay in PathHunter® cells overexpressing human S1P1 (Eurofins DiscoverX Corporation, San Diego, CA, USA; catalogue number 93‐0207C2) as described. The mean IC50 from at least 3 separate experiments was reported.

[4] = BNCI at 60 min, arithmetic mean
[5] = BNCI peak response at 8–10 min, read-out: Early phase EC50 [95% CI]
[6] = late (60 min) versus early phase

T1 sequence (P21453 whole entry): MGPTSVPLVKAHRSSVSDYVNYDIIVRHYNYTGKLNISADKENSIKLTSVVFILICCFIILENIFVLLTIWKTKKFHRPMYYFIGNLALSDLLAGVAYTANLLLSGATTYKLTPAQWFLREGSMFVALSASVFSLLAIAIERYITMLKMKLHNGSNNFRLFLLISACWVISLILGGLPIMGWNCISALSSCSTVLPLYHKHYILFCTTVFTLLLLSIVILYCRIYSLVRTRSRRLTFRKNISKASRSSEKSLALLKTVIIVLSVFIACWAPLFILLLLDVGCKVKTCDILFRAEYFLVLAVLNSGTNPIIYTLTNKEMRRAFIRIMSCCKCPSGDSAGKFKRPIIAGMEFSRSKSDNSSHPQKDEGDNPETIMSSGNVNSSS

| SMILES | Impedance profile in the presence of the GRK2 inhibitor (S1P1 [1]) | Shape of concentration–effect relationship in the late response (S1P1 [1]; BNCI at 60 min) | Late phase Max (S1P1 [1]; [4]) | Early phase Max (S1P1 [1]; arithmetic mean) | Early phase Min (S1P1 [1]; arithmetic mean) | EC50 (S1P1 [1]; [5]) [nM] | Early phase Hill slope (S1P1 [1]; arithmetic mean) | Emax (S1P1 [1]; [6]) [%] | Desensitization Max (S1P1 [2]) | Desensitization Min (S1P1 [2]) | IC50 (S1P1 [2]) [nM] | Desensitization Hill slope (S1P1 [2]) | Lymphocyte reduction (lymphocytes) | Volume of distribution in human [3] | further results |
| --- | --- | --- | --- | --- | --- | --- | --- | --- | --- | --- | --- | --- | --- | --- | --- |
| CCc1cc(/C(C)=N/OCc2ccc(C3CCCCC3)c(C(F)(F)F)c2)ccc1CN1CC(C(=O)O)C1 [Siponimod, siponimod] | sustained BNCI increase with no signal decline over 60 min | bell‐shaped | 0.150 | 0.440 | 0.012 | 0.977 | 0.7 | 34 | 96.8 | −16.3 | 0.167 | −1.0 | 70–80% |  | Barrier effect in late response in the presence of the GRK inhibitor (S1P1 [1]; 10 µM GRK inhibitor, same concentrations that gave negative BNCI without inhibitor): improved barrier integrity; Late response BNCI at highest concentrations (barrier effect) (S1P1 [1]; 60 min, absence of GRK inhibitor): endothelial barrier disruption; also recorded: concentration‐dependent decrease to negative BNCI values |
| CCC/N=C1\S/C(=C\c2ccc(OC[C@H](O)CO)c(Cl)c2)C(=O)N1c1ccccc1C [Ponesimod, ponesimod] |  | bell‐shaped | 0.468 | 0.582 | 0.175 | 2.41 | 1.2 | 81 | 79.3 | −38.2 | 18.4 | −0.9 |  | 160 [37] L | Activation-to-desensitization ratio [95% CI] (S1P1 [2]; desensitization IC50 / early phase EC50, geometric mean): 7.66 (3.41–17.2); S1P-induced BNCI response after preincubation at the highest concentrations tested (S1P1 [2]; second stimulation with S1P): fall below the baseline |
| CCCCCCCCc1ccc(CCC(N)(CO)CO)cc1 [fingolimod] |  |  |  |  |  |  |  |  |  |  |  |  | 70–80% |  |  |
| O=C(NCc1ccc2onc(NCc3ccccc3C(F)(F)F)c2c1)c1ccc2[nH]ncc2c1 [GRK2 inhibitor, 1H‐Indazole‐5‐carboxylic acid [3‐(2‐trifluoromethyl‐benzylamino)‐1,2‐benzisoxazol‐5‐ylmethyl]‐amide] |  |  |  |  |  |  |  |  |  |  |  |  |  |  | IC50 (recombinant human GRK2): 44 nM; IC50 (human S1P1): 1100 nM |
| Cc1cc(-c2nc3cnc(Oc4cccc(Cl)c4)nc3o2)cc(C)c1OCC(=O)O [SAR247799] | sustained BNCI increase with no signal decline over 60 min |  | 0.425 | 0.527 | 0.101 | 26.1 | 1.0 |  | 89.3 | 1.1 | 2980 | −1.9 |  | 7–23 [13] L | Late phase Hill slope (S1P1 [1]; [4]): 0.7; Late phase Min (S1P1 [1]; [4]): 0.045; EC50 (S1P1 [1]; BNCI at 60 min, read-out: Late phase EC50 [95% CI]): 42.8 nM; Maximum BNCI in late response as % of E max in early response (S1P1 [1]; [6]): 81%; Further increase of late response by presence of GRK inhibitor (S1P1 [1]; late response, 10 µM GRK inhibitor pretreated 2 h): 2 fold |
| CC(C)Oc1ccc(-c2nc(-c3cccc4c3CC[C@@H]4NCCO)no2)cc1C#N [Ozanimod, ozanimod] |  | bell‐shaped | 0.234 | 0.461 | 0.188 |  | 1.1 | 51 | 91.5 | −13.9 |  | −1.5 | 55% | 5590 [5] L |  |

Source: PMC7530392, “A label‐free impedance assay in endothelial cells differentiates the activation and desensitization properties of clinical S1P1 agonists” (FEBS Open Bio, 2020)
